Measurements: patent publication US20130005749A1, “NOVEL FORMULATION AND TREATMENT METHODS” (The University of Queensland, priority 2011, published 2013)
One block for each molecule: values may come before it.

Assays:
[1] = tested on: ulcerative colitis; test: Human patient R-LS with ulcerative colitis
Description: Because treatment with AZA and 6-MP was not an option, they were treated instead with 6-TG using the conventional therapeutic protocol, namely bolus administration of 40 mg per day (R-LS weighs approximately 60 kg) and 5-aminosalicylic acid.
Again, they were treated with 6-TG using the conventional therapeutic protocol, namely bolus administration of 40 mg per day and balsalazide. […] Maintenance therapy to prevent relapse was again prescribed using a lower dose of balsalazide.
Given their clinical history, the inventors were reluctant to prescribe another bolus dose of 6-TG due to the known hepatotoxic side-effects that could occur.
Accordingly, R-LS was given 60 mg per day 6-TG in a divided dosage (3 separate doses of equal amounts). The doses were given at intervals throughout the day.

[2] = tested on: inflammatory bowel disease; conditions: after one year; Ansari et al. 2008; cited from earlier work
[3] = tested on: acute childhood leukemia; conditions: cited from earlier work; for prevalence of VOD in patients: acute childhood leukemia cases, Stork et al. 2010
[4] = tested on: HPRT−/− C57BL/6 mice; test: VOD score in HPRT-/- mouse model; format: in vivo; conditions: all dosage levels including 1 and 2.5 mg/kg body weight, gavage each day for 14 days
Text: (§1) The total possible VOD score was 240.

[5] = tested on: Winnie (C57Bl/6 Muc2 Winnie/Winnie) mice; test: Histological colitis scores in Winnie mouse model of spontaneous colitis; format: in vivo
Description: This experiment usesa mouse model of spontaneous colitis called Winnie(C57Bl/6 Muc2^Winnie/Winnie) due to a single SNP mutation in Muc2 in C57Bl/6 mice. The model resembles ulcerative colitis. The mutation confers an intestinal epithelial cell defect, which causes a Th17 dominant inflammatory response (Heazlewood et al. 2008 and Eri et al. 2011).
(§2) Male or female C57Bl/6 Winnie mice were gavaged twice daily for 11-days in an experiment with three groups (6 animals per group):
(§3) Group 1: 1.25 mg/kg 6TG evening and morning (total 2.5 mg/kg/d, N=6)
Group 2: vehicle control twice daily (N=6), or
(§4) Group 3: 2.5 mg/kg/d 6TG in the morning and vehicle gavage in the afternoon ([…]).
This experiment uses Winnie(C57Bl/6 Muc2^Winnie/Winnie).
(§5) Male or female C57Bl/6 Winnie mice were gavage once daily for 28-days in an experiment with two groups (6 animals per group):
(§6) Group 1: 0.5 mg/kg 6TG once daily gavage
Group 2: vehicle control (N=6),

[6] = tested on: Winnie (C57Bl/6 Muc2 Winnie/Winnie) mice; test: SOS in Winnie mice; format: in vivo
Description: as §1, §2, §3, §4, §5, §6

[7] = tested on: Winnie (C57Bl/6 Muc2 Winnie/Winnie) mice; test: Immunosuppression (venous blood leukocytes) and myelotoxicity in Winnie mice; format: in vivo; conditions: for immunosuppression (reductions in venous blood leukocytes): 11 days
Description: as §2, §3, §4, §5, §6

[8] = tested on: C57BL/6 mice; test: Veno-occlusive disease (VOD/SOS) blinded histological score in C57BL/6 mice; conditions: 10 days
Description: Veno-occlusive disease (or “VOD”) in each mouse was scored in a blinded fashion based on predetermined scoring criteria for sinusoidal endothelial damage (maximum 60), hepatic central vein damage (maximum 60) and inflammatory cell infiltrates using haematoxylin-eosin sections counterstained with vWF for endothelial cells and F4/80 for macrophages (maximum 120). The total possible VOD score was 240.
VOD was scored using the method described in Example 1.
Two groups of C57BL/6 mice were administered a large bolus dose of 6-TG (2.5 mg/kg body weight/day) either (1) orally (by gavage) or (2) intraperitoneally for a period of 10 days.
VOD in each mouse was then scored using the method described in Example 1.

[9] = 0.5 mg/kg once daily gavage, 28 days

Compound: Cn1cnc([N+](=O)[O-])c1Sc1ncnc2nc[nH]c12 [AZA, 6-(3-methyl-5-nitroimidazol-4-yl)sulfanyl-7H-purine]
adverse reactions ([1]; human, in vivo): life-threatening adverse reactions | patients who stop therapy due to side-effects or non-responsiveness [2]: approximately 40%

Compound: Sc1ncnc2nc[nH]c12 [Formulation 6-MP, 3,7-dihydropurine-6-thione]
adverse reactions ([1]; human, in vivo): life-threatening adverse reactions | prevalence of VOD in patients [3]: not observed | patients who stop therapy due to side-effects or non-responsiveness [2]: approximately 40%

VOD score [4]: VOD was shown to be abrogated | SOS [6, 9]: did not occur | SOS ([6]; 2.5 mg/kg/d once daily gavage × 11 days): causes SOS | SOS ([6]; split 1.25 mg/kg b.d dose, 11 days): SOS is largely avoided | VOD ([8]; 2.5 mg/kg body weight/day bolus by oral gavage): exhibited VOD | VOD ([8]; 2.5 mg/kg body weight/day bolus intraperitoneally): VOD was not observed
Compound: Nc1nc2nc[nH]c2c(=S)[nH]1 [Formulation 6-TG, 2-amino-6,7-dihydro-3H-purine-6-thione]
Histological colitis scores ([5]; 0.5 mg/kg/d once daily gavage, 28 days): significantly improved spontaneous colitis | Histological colitis scores ([5]; 1.25 mg/kg twice daily gavage, 11 days): significantly improved spontaneous colitis | Histological colitis scores ([5]; 2.5 mg/kg/d gavaged once daily, 11 days): significantly improved spontaneous colitis | Immunosuppression [7, 9]: mild | myelotoxicity [7, 9]: did not have myelotoxicity | immunosuppression (reductions in venous blood leukocytes) ([7]; single full dosing 2.5 mg/kg/d): moderate immunosuppression | immunosuppression (reductions in venous blood leukocytes) ([7]; split dosing 1.25 mg/kg twice daily): moderate immunosuppression | response to the treatment ([1]; 60 mg per day in 3 separate equal doses, six months (relapse December 2010)): once again effective | response to the treatment ([1]; bolus 40 mg per day with 5-aminosalicylic acid, after 4 months (2003)): extremely positive response | response to the treatment ([1]; bolus 40 mg per day with balsalazide, ~5-6 months (relapse 2006)): positive response | clinical effectiveness in treating the disease compared with 6-MP ([3]; Stork et al. 2010 (and others)): equivalent or even more clinically effective | prevalence of VOD in patients [3]: high prevalence of VOD

Compound: O=C(O)c1cc(/N=N/c2ccc(S(=O)(=O)Nc3ccccn3)cc2)ccc1O [sulfasalazine]
adverse reactions ([1]; patient history before 2003): life-threatening adverse reactions
